Measurements taken from US9926301B2, “Bipyrazole derivatives as JAK inhibitors” (Incyte Corporation, priority 2013, dated 2018).
Structures can show the parent of a compound that is named as a salt.

Experiments:
Format in all cases: biochemical
[1] = molecular target: human JAK1 (a.a. 837-1142) catalytic domain (Homo sapiens, UniProt P23458); assay: In vitro JAK kinase assay (HTRF), JAK1; details: JAK enzyme assay at 1 mM ATP
Procedure: (§1) The catalytic activity of JAK1, JAK2 or JAK3 was assayed by measuring the phosphorylation of a biotinylated peptide. The phosphorylated peptide was detected by homogenous time resolved fluorescence (HTRF). […] Reactions were carried out at room temperature for 1 hour and then stopped with 20 μL 45 mM EDTA, 300 nM SA-APC, 6 nM Eu-Py20 in assay buffer (Perkin Elmer, Boston, Mass.). Binding to the Europium labeled antibody took place for 40 minutes and HTRF signal was measured on a Fusion plate reader (Perkin Elmer, Boston, Mass.).

[2] = molecular target: human JAK2 (a.a. 828-1132) catalytic domain (Homo sapiens (Human), UniProt O60674); assay: In vitro JAK kinase assay (HTRF), JAK2; details: JAK enzyme assay at 1 mM ATP
Chain of human JAK2 (a.a. 828-1132) catalytic domain (O60674 828-1132): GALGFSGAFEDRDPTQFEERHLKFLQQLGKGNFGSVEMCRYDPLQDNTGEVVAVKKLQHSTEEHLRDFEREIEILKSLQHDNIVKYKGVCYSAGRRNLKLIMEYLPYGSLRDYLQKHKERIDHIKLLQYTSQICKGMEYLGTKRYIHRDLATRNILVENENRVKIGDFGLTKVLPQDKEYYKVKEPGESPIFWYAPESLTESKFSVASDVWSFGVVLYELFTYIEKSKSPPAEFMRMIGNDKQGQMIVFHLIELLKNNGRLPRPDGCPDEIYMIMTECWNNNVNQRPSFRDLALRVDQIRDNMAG
Procedure: as §1

[3] = tested on: human JAK1 (a.a. 837-1142) catalytic domain; assay: In vitro JAK kinase assay (HTRF), JAK1; details: ratio of IC50 values at 1 mM ATP
Procedure: as §1

SMILES	IC50 [1]	IC50 [2]	JAK2/JAK1 [3]
C[C@H](NC(=O)c1cc(F)c(N2CC(CC#N)(n3cc(-c4c[nH]nc4CO)cn3)C2)cc1F)C(F)(F)F [Example 12, 4-{3-(Cyanomethyl)-3-[3′-(hydroxymethyl)-1H,1′H-4,4′-bipyrazol-1-yl]azetidin-1-yl}-2,5-difluoro-N-[(1S)-2,2,2-trifluoro-1-methylethyl]benzamide trifluoroacetate]	300 to 1000 nM	> 1000 nM	–
Cc1n[nH]cc1-c1cnn(C2(CC#N)CN(c3ccc(C(=O)NC(C)C)cc3)C2)c1 [Example 3, 4-[3-(Cyanomethyl)-3-(3′-methyl-1H,1′H-4,4′-bipyrazol-1-yl)azetidin-1-yl]-N-isopropylbenzamide trifluoroacetate]	< 300 nM	> 1000 nM	>10
CCc1n[nH]cc1-c1cnn(C2(CC#N)CN(c3cnc(C(=O)N[C@@H](C)C(F)(F)F)cn3)C2)c1 [Example 11, 5-[3-(Cyanomethyl)-3-(3′-ethyl-1H,1′H-4,4′-bipyrazol-1-yl)azetidin-1-yl]-N-[(1S)-2,2,2-trifluoro-1-methylethyl]pyrazine-2-carboxamide trifluoroacetate]	300 to 1000 nM	> 1000 nM	–
Cc1n[nH]cc1-c1cn(C2(CC#N)CN(c3cnc(C(=O)NC(C)C)cn3)C2)nc1C [Example 6, 5-[3-(Cyanomethyl)-3-(3,3′-dimethyl-1H,1′H-4,4′-bipyrazol-1-yl)azetidin-1-yl]-N-isopropylpyrazine-2-carboxamide trifluoroacetate]	< 300 nM	> 1000 nM	>10
Cc1n[nH]c(C)c1-c1cnn(C2(CC#N)CN(c3cnc(C(=O)N[C@@H](C)C(F)(F)F)cn3)C2)c1 [Example 9, 5-[3-(Cyanomethyl)-3-(3′,5′-dimethyl-1H,1′H-4,4′-bipyrazol-1-yl)azetidin-1-yl]-N-[(1S)-2,2,2-trifluoro-1-methylethyl]pyrazine-2-carboxamide trifluoroacetate]	< 300 nM	300 to 1000 nM	>10

Other lines, results leading:

IC50 [1]	IC50 [2]	JAK2/JAK1 [3]	SMILES
300 to 1000 nM	> 1000 nM	>10	C[C@H](NC(=O)c1cc(F)c(N2CC(CC#N)(n3cc(-c4cn[nH]c4)cn3)C2)cc1F)C(F)(F)F [Example 5, 4-[3-(1H,1′H-4,4′-Bipyrazol-1-yl)-3-(cyanomethyl)azetidin-1-yl]-2,5-difluoro-N-[(1S)-2,2,2-trifluoro-1-methylethyl]benzamide trifluoroacetate]
300 to 1000 nM	> 1000 nM	–	Cc1nn(C2(CC#N)CN(c3cnc(C(=O)NC(C)C)cn3)C2)cc1-c1cn[nH]c1 [Example 10, 5-[3-(Cyanomethyl)-3-(3-methyl-1H,1′H-4,4′-bipyrazol-1-yl)azetidin-1-yl]-N-isopropylpyrazine-2-carboxamide trifluoroacetate]
< 300 nM	> 700 nM	>10	Cc1[nH]ncc1-c1cnn(C2(CC#N)CN(c3cnc(C(=O)N[C@@H](C)C(F)(F)F)cn3)C2)c1 [Example 1, 5-[3-(Cyanomethyl)-3-(3′-methyl-1H,1′H-4,4′-bipyrazol-1-yl)azetidin-1-yl]-N-[(1S)-2,2,2-trifluoro-1-methylethyl]pyrazine-2-carboxamide trifluoroacetate]
< 300 nM	–	–	Cc1n[nH]c(C)c1-c1cnn(C2(CC#N)CN(c3cnc(C(=O)NC(C)C)cn3)C2)c1 [Example 8, 5-[3-(Cyanomethyl)-3-(3′,5′-dimethyl-1H,1′H-4,4′-bipyrazol-1-yl)azetidin-1-yl]-N-isopropylpyrazine-2-carboxamide]
< 300 nM	300 to 1000 nM	>10	Cc1n[nH]cc1-c1cnn(C2(CC#N)CN(c3cnc(C(=O)NC(C)C)cn3)C2)c1 [Example 2, 5-[3-(Cyanomethyl)-3-(3′-methyl-1H,1′H-4,4′-bipyrazol-1-yl)azetidin-1-yl]-N-isopropylpyrazine-2-carboxamide trifluoroacetate]
< 300 nM	–	–	Cc1n[nH]cc1-c1cnn(C2(CC#N)CN(c3cc(F)c(C(=O)N[C@@H](C)C(F)(F)F)cc3F)C2)c1 [Example 4, 4-[3-(Cyanomethyl)-3-(3′-methyl-1H,1′H-4,4′-bipyrazol-1-yl)azetidin-1-yl]-2,5-difluoro-N-[(1S)-2,2,2-trifluoro-1-methylethyl]benzamide trifluoroacetate]
< 300 nM	> 1000 nM	>10	Cc1n[nH]cc1-c1cn(C2(CC#N)CN(c3cc(F)c(C(=O)N[C@@H](C)C(F)(F)F)cc3F)C2)nc1CO [Example 13, 4-{3-(Cyanomethyl)-3-[3-(hydroxymethyl)-3′-methyl-1H,1′H-4,4′-bipyrazol-1-yl]azetidin-1-yl}-2,5-difluoro-N-[(1S)-2,2,2-trifluoro-1-methylethyl]benzamide]
